In brackets after ≈: the same amount, converted by molar mass. Several values for one entry are separate records, joined by “and”; a condition that tells them apart may be missing. Equal values may be shown once. Read-outs that look alike come from different tables or passages of the source.
Experiments:
[1] = system: Influenza A H3N2 virus (H3N2); assay type: cell-based; settings: for average inactivation efficiency against virus / inactivation efficiency against the virus: H3N2 virus; for inactivation efficiency against the virus: single experiment
[2] = system: Helicobacter pylori (Hp) strain B5-3; test: In vitro bactericidal concentration (MBC) against Helicobacter pylori, broth dilution and plate counting; settings: for Bactericidal rate % / Concentration CFU/mL / Average number of colonies: shake flask about 24 hours; for Average number of colonies: dilution factor 10^−4

In the case of `O=C(O[C@@H]1Cc2c(O)cc(O)cc2O[C@@H]1c1cc(O)c(O)c(O)c1)c1cc(O)c(O)c(O)c1` [EGCG, Epigallocatechin gallate], the “CPE test, virus replication in cell wells 1-10” value (shortened to “CPE test … in cell wells 1-10”) ([1]; 1 mM EGCG + H3N2 virus, 1 minute, third experiment, dilution factor 10^4) is reported as “+”, the “CPE test … in cell wells 1-10” value ([1]; 1 mM EGCG + H3N2 virus, 1 minute, third experiment, dilution factor 10^5) is reported as “− and +” and the “CPE test … in cell wells 1-10” value ([1]; 1 mM EGCG + H3N2 virus, 1 minute, third experiment, dilution factor 10^6) is reported as “−”. The “CPE test … in cell wells 1-10” value ([1]; 1 mM EGCG + H3N2 virus, 1 minute, third experiment, dilution factor 10^7) was “−”, the “CPE test … in cell wells 1-10” value ([1]; 1 mM EGCG + H3N2 virus, 1 minute, third experiment, dilution factor 10^8) was “−” and the “CPE test … in cell wells 1-10” value ([1]; 1 mM EGCG + H3N2 virus, 5 minute, first experiment, dilution factor 10^3) was “− and +”. For the same molecule, the “CPE test … in cell wells 1-10” value ([1]; 1 mM EGCG + H3N2 virus, 5 minute, first experiment, dilution factor 10^4) was “+ and −”, the “CPE test … in cell wells 1-10” value ([1]; 1 mM EGCG + H3N2 virus, 5 minute, first experiment, dilution factor 10^5) was “−” and the “CPE test … in cell wells 1-10” value ([1]; 1 mM EGCG + H3N2 virus, 5 minute, first experiment, dilution factor 10^6) was “−”. For the same molecule, the “CPE test … in cell wells 1-10” value ([1]; 1 mM EGCG + H3N2 virus, 5 minute, first experiment, dilution factor 10^7) was “−”, the “CPE test … in cell wells 1-10” value ([1]; 1 mM EGCG + H3N2 virus, 5 minute, first experiment, dilution factor 10^8) was “−” and the “CPE test … in cell wells 1-10” value ([1]; 1 mM EGCG + H3N2 virus, 5 minute, second experiment, dilution factor 10^3) was “−”. The “CPE test … in cell wells 1-10” value ([1]; 1 mM EGCG + H3N2 virus, 5 minute, second experiment, dilution factor 10^4) was “−”, the “CPE test … in cell wells 1-10” value ([1]; 1 mM EGCG + H3N2 virus, 5 minute, second experiment, dilution factor 10^5) was “−” and the “CPE test … in cell wells 1-10” value ([1]; 1 mM EGCG + H3N2 virus, 5 minute, second experiment, dilution factor 10^6) was “−”. For the same molecule, the “CPE test … in cell wells 1-10” value ([1]; 1 mM EGCG + H3N2 virus, 5 minute, second experiment, dilution factor 10^7) was “−”, the “CPE test … in cell wells 1-10” value ([1]; 1 mM EGCG + H3N2 virus, 5 minute, second experiment, dilution factor 10^8) was “−” and the “average inactivation efficiency against virus” value (“average inactivation efficiency” for short) ([1]; 1 mM EGCG, 1 minute, three experiments) was 61.78%. For the same molecule, the “inactivation efficiency against the virus” value ([1]; 1 mM EGCG, 5 minutes) was 99.50% and 99.87%, the “average inactivation efficiency” value ([1]; 1 mM EGCG, 5 minutes, two experiments) was 99.69% and the “CPE test, virus replication in cell wells (wells 1-10)” value (“CPE test … (wells 1-10)” for short) ([1]; 5 mM EGCG + H3N2 virus, 1 minute, first experiment, dilution factor 10^4) was “−”. The “CPE test … (wells 1-10)” value ([1]; 5 mM EGCG + H3N2 virus, 1 minute, first experiment, dilution factor 10^5) was “−”, the “CPE test … (wells 1-10)” value ([1]; 5 mM EGCG + H3N2 virus, 1 minute, first experiment, dilution factor 10^6) was “−” and the “CPE test … (wells 1-10)” value ([1]; 5 mM EGCG + H3N2 virus, 1 minute, first experiment, dilution factor 10^7) was “−”. For the same molecule, the “CPE test … (wells 1-10)” value ([1]; 5 mM EGCG + H3N2 virus, 1 minute, first experiment, dilution factor 10^8) was “−”, the “CPE test … (wells 1-10)” value ([1]; 5 mM EGCG + H3N2 virus, 1 minute, second experiment, dilution factor 10^3) was “+” and the “CPE test … (wells 1-10)” value ([1]; 5 mM EGCG + H3N2 virus, 1 minute, second experiment, dilution factor 10^4) was “−”. The “CPE test … (wells 1-10)” value ([1]; 5 mM EGCG + H3N2 virus, 1 minute, second experiment, dilution factor 10^5) was “−”, the “CPE test … (wells 1-10)” value ([1]; 5 mM EGCG + H3N2 virus, 1 minute, second experiment, dilution factor 10^6) was “−” and the “CPE test … (wells 1-10)” value ([1]; 5 mM EGCG + H3N2 virus, 1 minute, second experiment, dilution factor 10^7) was “−”. The “CPE test … (wells 1-10)” value ([1]; 5 mM EGCG + H3N2 virus, 1 minute, second experiment, dilution factor 10^8) was “−”, the “CPE test … in cell wells 1-10” value ([1]; 5 mM EGCG + H3N2 virus, 1 minute, third experiment, dilution factor 10^4) was “−” and the “CPE test … in cell wells 1-10” value ([1]; 5 mM EGCG + H3N2 virus, 1 minute, third experiment, dilution factor 10^5) was “−”. The “CPE test … in cell wells 1-10” value ([1]; 5 mM EGCG + H3N2 virus, 1 minute, third experiment, dilution factor 10^6) was “−”, the “CPE test … in cell wells 1-10” value ([1]; 5 mM EGCG + H3N2 virus, 1 minute, third experiment, dilution factor 10^7) was “−” and the “CPE test … in cell wells 1-10” value ([1]; 5 mM EGCG + H3N2 virus, 1 minute, third experiment, dilution factor 10^8) was “−”. The “CPE test … in cell wells 1-10” value ([1]; 5 mM EGCG + H3N2 virus, 5 minute, first experiment, dilution factor 10^4) was “− and +”, the “CPE test … in cell wells 1-10” value ([1]; 5 mM EGCG + H3N2 virus, 5 minute, first experiment, dilution factor 10^5) was “− and +” and the “CPE test … in cell wells 1-10” value ([1]; 5 mM EGCG + H3N2 virus, 5 minute, first experiment, dilution factor 10^6) was “−”. The “CPE test … in cell wells 1-10” value ([1]; 5 mM EGCG + H3N2 virus, 5 minute, first experiment, dilution factor 10^7) was “−”, the “CPE test … in cell wells 1-10” value ([1]; 5 mM EGCG + H3N2 virus, 5 minute, first experiment, dilution factor 10^8) was “−” and the “CPE test … in cell wells 1-10” value ([1]; 5 mM EGCG + H3N2 virus, 5 minute, second experiment, dilution factor 10^3) was “+”. The “CPE test … in cell wells 1-10” value ([1]; 5 mM EGCG + H3N2 virus, 5 minute, second experiment, dilution factor 10^4) was “−”, the “CPE test … in cell wells 1-10” value ([1]; 5 mM EGCG + H3N2 virus, 5 minute, second experiment, dilution factor 10^5) was “−” and the “CPE test … in cell wells 1-10” value ([1]; 5 mM EGCG + H3N2 virus, 5 minute, second experiment, dilution factor 10^6) was “−”. For the same molecule, the “CPE test … in cell wells 1-10” value ([1]; 5 mM EGCG + H3N2 virus, 5 minute, second experiment, dilution factor 10^7) was “−”, the “CPE test … in cell wells 1-10” value ([1]; 5 mM EGCG + H3N2 virus, 5 minute, second experiment, dilution factor 10^8) was “−” and the “inactivation efficiency against the virus” value ([1]; 5 mM EGCG, 1 minute) was 98.74% and 96.84%. The “average inactivation efficiency” value ([1]; 5 mM EGCG, 1 minute, three experiments) was 98.11%, the “inactivation efficiency against the virus” value ([1]; 5 mM EGCG, 5 minutes) was 97.49% and 98.74% and the “average inactivation efficiency” value ([1]; 5 mM EGCG, 5 minutes, two experiments) was 98.32%. For the same molecule, the Bactericidal rate % ([2]; EGCG 100 μM) was 98.8%, the “Concentration CFU/mL” value ([2]; EGCG 100 μM) was 1.4 × 10^7 CFU/mL and the “Average number of colonies” value ([2]; EGCG 100 μM) was 142. For the same molecule, the Bactericidal rate % ([2]; EGCG 200 μM) was over 99.9%, the “Concentration CFU/mL” value ([2]; EGCG 200 μM) was 3.5 × 10^6 CFU/mL and the “Average number of colonies” value ([2]; EGCG 200 μM) was 35. For the same molecule, the Bactericidal rate % ([2]; EGCG 400 μM) was over 99.9%, the “Concentration CFU/mL” value ([2]; EGCG 400 μM) was 2.2 × 10^6 CFU/mL and the “Average number of colonies” value ([2]; EGCG 400 μM) was 22. The MBC ([2]; Helicobacter pylori, 24 h, read-out: minimum bactericidal concentration (MBC)) was 200 µM (≈ 91.7 µg/mL) and the Hp inactivated ([2]; shake flask culture, lowest concentration of 100 μM) was “about 98.9%”.

From patent US20240238242A1, “EGCG buccal tablet and use thereof” (priority 2023, published 2024)
